Assay results published in ChEMBL document CHEMBL2074185, “Differential effects of the breast cancer resistance protein on the cellular accumulation and cytotoxicity of 9-aminocamptothecin and 9-nitrocamptothecin” (Cancer Res, 2003).

Molecular target: T1, Broad substrate specificity ATP-binding cassette transporter ABCG2 (Homo sapiens, UniProt Q9UNQ0)
T1 sequence (Q9UNQ0 whole entry): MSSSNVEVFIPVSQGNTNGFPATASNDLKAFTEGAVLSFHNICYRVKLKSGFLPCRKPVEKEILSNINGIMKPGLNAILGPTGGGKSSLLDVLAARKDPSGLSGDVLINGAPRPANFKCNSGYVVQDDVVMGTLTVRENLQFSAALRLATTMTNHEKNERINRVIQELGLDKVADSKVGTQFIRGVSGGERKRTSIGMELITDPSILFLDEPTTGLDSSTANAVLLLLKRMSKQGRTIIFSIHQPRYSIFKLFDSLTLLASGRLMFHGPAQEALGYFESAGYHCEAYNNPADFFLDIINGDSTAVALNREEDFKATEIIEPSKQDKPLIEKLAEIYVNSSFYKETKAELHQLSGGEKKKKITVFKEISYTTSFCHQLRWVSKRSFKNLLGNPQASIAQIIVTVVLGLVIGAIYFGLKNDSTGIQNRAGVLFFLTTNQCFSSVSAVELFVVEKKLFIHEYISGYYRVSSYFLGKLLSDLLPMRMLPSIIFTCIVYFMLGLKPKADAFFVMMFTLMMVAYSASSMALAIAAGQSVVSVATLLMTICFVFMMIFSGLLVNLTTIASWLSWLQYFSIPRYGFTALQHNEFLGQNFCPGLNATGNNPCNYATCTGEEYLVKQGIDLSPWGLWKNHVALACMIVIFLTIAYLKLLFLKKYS
Assay: TP_TRANSPORTER: uptake in BCRP-expressing HEK293 cells
Format: functional, cell-based

Activity: substrate []
SMILES: CC[C@@]1(O)C(=O)OCc2c1cc1n(c2=O)Cc2cc3c(N)cccc3nc2-1 [9-AMINOCAMPTOTHECIN]
